# Results reported in patent publication US20240208898A1, “ENAMINE N-OXIDES: SYNTHESIS AND APPLICATION TO HYPOXIA-RESPONSIVE PRODRUGS AND IMAGING AGENTS” (DANA-FARBER CANCER INSTITUTE, INC., priority 2021, published 2024).
# Key:
# Assay type in all cases: cell-based
# BxPC-3 cells = test: Western blot of pimonidazole-labeled cells; details: 48 h, 10 μM, printed 'until after 1% pO2'
# Description: Cells were seeded at a density of 200,000 cells per well in media [2 mL, RPMI supplemented with 5% heat-inactivated human serum (Sigma), penicillin (100 units/mL), and streptomycin (0.1 mg/mL)] in 6-well plates. Cells were incubated at 37° C. under ambient atmosphere with 5% CO2. After 24 hours, the media was aspirated and replaced with media [1 mL, RPMI supplemented with 5% heat-inactivated HS, penicillin (100 units/mL), and streptomycin (0.1 mg/mL)] containing pimonidazole (1 μL, 10 mM in water; 10 μM final concentration). Plates were then incubated at 37° C. under ambient (20% pO2) or oxygenated conditions (5%, 1%, or 0.1% pO2) with 5% CO2 for 48 hours. The oxygenated conditions were maintained using a hypoxia chamber (ProOx C21, Biospherix) in a cell culture incubator. After 48 hours, the media was aspirated, and the cells were washed with PBS (1 mL). PBS (1 mL) was then added to each well and the cells were scraped off with a cell scraper. […] The protein concentration was then determined by BCA assay following the manufacturer's protocol (Pierce). […] The dried pellet was then resuspended in an SDS solution (50 μL, 1% SDS in 50 mM Tris, pH 8.0), and the protein concentration was determined by BCA assay. […] Blots were imaged using a fluorescence scanner (Odyssey CLx, LI-COR Biosciences) and quantified by ImageJ.
# A431 cells = test: Staurosporine release by A431 cells; details: 7.5×10^6 A431 cells, 100 μM compound, serum free RPMI, HPLC
# Description: Sterilized 2 mL HPLC vials were each charged with a suspension of 7.5×10^6 cells in RPMI (1 mL) and sealed with a cap containing a septum. The vials were charged with only RPMI (1 mL) in the no cell controls. A stock solution of staurosporine enamine N-oxide 37 (10 μL, 10 mM in ethanol; 100 μM final concentration) was then added to each vial. Septa were pierced with an open 22-gauge needle for normoxic conditions. Hypoxic conditions were maintained using nitrogen lines connected to a vacuum gas manifold. The vials were maintained at 37° C. in a water bath and shaken every 15 minutes. At different time points (0, 1, 2, 4, and 8 hours), an aliquot of the cell suspension (100 μL) was removed from each vial and immediately added to acetonitrile (100 μL) containing p-nitrophenol (10 μM) as an internal standard. Quenched samples were then cooled to −20° C. for 1 hour and centrifuged at 10,000×g for 5 minutes at 4° C. The supernatant was collected and analyzed by HPLC (C18 column, 4.6×250 mm, 5 μm particle size, 1 mL/minute flow rate, eluent: gradient 0→20% MeCN/H2O+0.1% TFA (1 minute), gradient 20→40% MeCN/H2O+0.1% TFA (7 minutes), gradient 40→100% MeCN/H2O+0.1% TFA (3 minutes)). Staurosporine was quantified using its absorbance at 280 nm.
# A431 or H460 cells = test: Staurosporine enamine N-oxide cell viability studies (MTT); details: compared with AQ4N
# Description: A431 or H460 cells were seeded at a density of 12,000-13,000 cells per well in media [100 μL, RPMI supplemented with 5% heat-inactivated human serum (Sigma), penicillin (100 units/mL), and streptomycin (0.1 mg/mL)] in clear 96-well plates. PBS (100 μL) was added to the edge wells. The cells were incubated at 37° C. under ambient atmosphere with 5% CO2. After 24 hours, the media was aspirated and replaced with media [50 μL, RPMI supplemented with 5% HS, penicillin (100 units/mL), and streptomycin (0.1 mg/mL)] containing the staurosporine derivative of interest. For A431 cells, staurosporine or staurosporine derivative treatment concentrations started at 50 μM and were serially diluted 4-fold across nine wells. For H460 cells, staurosporine or staurosporine derivative treatment concentrations started at 100 μM and were serially diluted 4-fold across nine wells. […] After 48 hours, the media was aspirated, the wells were washed once with PBS (130 μL), and the cell viability was determined using the MTT assay. […] The absorbance at 570 nm was measured using a microplate reader (Clariostar Plus, BMG Labtech).
# These studies were performed as previously reported (Manley et al., J. Pharmacol. Exp. Ther. 344:368-377 (2013)). […] After 72 hours, cell viability was determined using the MTT assay. […] The absorbance at 570 nm was then measured using a microplate reader (Clariostar Plus, BMG Labtech).
structure (smiles),measurement,setting,value
O=[N+]([O-])c1nccn1CC(O)CN1CCCCC1 (stereo not drawn) [Pimonidazole],oxygen tension at which apparent half maximal labeling capacity (0.1% pO2) is reached,BxPC-3 cells,< 1 % pO2
"CC[N+]([O-])(/C=C/COC(=O)N1Cc2c(c3c4ccccc4n4c3c3c2c2ccccc2n3[C@@]2(C)O[C@@H]4C[C@@H](NC)[C@H]2OC)C1=O)CC [compound 37, N,N-diethyl enamine N-oxide staurosporine]",rate of conversion to staurosporine under hypoxic conditions relative to normoxic,A431 cells,~4 fold
same,hypoxic to normoxic cytotoxicity ratios (HCR),A431 or H460 cells,compare favorably with and are complementary to those of AQ4N
